Laboratory results as given in patent US20160287524A1, “PHARMACEUTICAL COMPOSITIONS COMPRISING AN ACTIVE AGENT” (GALENICUM HEALTH S.L., priority 2013, published 2016).

Experiment: Dissolving the active agent in the capsule fill (glycerol monocaprylocaprate, BHT)
Type: physicochemical
Details: 20-23° C., stirred
Text: Another advantage of the process as herein disclosed is that it is highly reproducible and robust independently of the water content of the active agent. […] However, when the active agent has a water content higher than 0.05% measured by Karl Fischer titration, the components of the fill are completely dissolved at the same range of temperatures. Furthermore, the inventors have been able to establish an optimum range of working temperatures able to obtain a fill solution completely dissolved homogeneously with active agents with a water content higher than 0.05% w/w.
• Glycerol monocaprylocaprate was added to a stainless steel tank equipped with cooling jacket to keep it at a temperature of 20-23° C. It was stirred until completely dissolved. • Butylhydroxytoluene (BHT) was added to the tank and stirred until completely dissolved. • Finally dutasteride anhydrous was added to the tank. • The resulting solution was kept at a range of temperature of 20-23° C. […] Water content of the active agent and the range of temperatures were studied to avoid dissolution problems.

In the case of `C[C@]12C=CC(=O)N[C@@H]1CC[C@@H]1[C@@H]2CC[C@]2(C)[C@@H](C(=O)Nc3cc(C(F)(F)F)ccc3C(F)(F)F)CC[C@@H]12` [dutasteride anhydrous], the “dissolution of active agent in the fill solution” value is reported as “not possible to obtain a completely dissolved solution”.
